Among the test systems are SK-MEL-28; OVCAR-4; SK-MEL-2; EKVX; A549; K562; SK-OV-3; 786-0; IGROV-1; HOP-92; UACC-257; NCI-H23; DLD-1; HCT-15; HCC 2998; Hs-578T; MDA-MB-435; PC-3; MDA-MB-231; T47D.
Holding throughout (test): NCI tumour cell line growth inhibition, 48 h

Molecules are shown by their SMILES.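 Dose response: 5 concentrations. Exposure: 48 h. Format: 96-well plates. Endpoint: linear interpolation; highest concentration if not reached. GI50 = concentration required for 50% inhibition of growth.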 The source made the active and inactive calls. No stated cut-off is given here; in the data, active = GI50 up to about 1.1 µM and inactive = higher.

For `CC(=O)CNC(=O)OC(C)(C)C`, the GI50 with SK-MEL-28, in the test on OVCAR-4, in the test on SK-MEL-2, in the test with EKVX, with A549 and with K562 was > 100 µM (inactive) each time. Moreover, the GI50 in the test with SK-OV-3, with 786-0, with IGROV-1, with HOP-92, in the test on UACC-257 and in the test with NCI-H23 was > 100 µM (inactive) each time. For the same molecule, the GI50 in the test on DLD-1 is > 100 µM (inactive).
In the case of `COc1ccc(-c2nc3c(nc2-c2ccc(OC)cc2)C(N)=NS(=O)(=O)N3)cc1`, the GI50 in the test on SK-MEL-28 is > 100 µM (inactive); in the test on SK-MEL-2 it was > 100 µM (inactive); in the test with EKVX, > 100 µM (inactive); with HCT-15 it was above 100 µM; in the test with HCC 2998, > 100 µM (inactive); in the test on A549, > 100 µM (inactive). In addition, the GI50 in the test with K562, in the test with SK-OV-3, in the test on 786-0, in the test on IGROV-1, in the test with UACC-257 and with NCI-H23 was > 100 µM (inactive) each time. The GI50 in the test with DLD-1 was > 100 µM (inactive).
As to `CCOc1ccc(N2C(=O)/C(=C/c3ccc(N(CCC#N)CCC#N)cc3)N=C2c2cc([N+](=O)[O-])ccc2Cl)cc1`, the GI50 was 7.67 µM (inactive) in the test on SK-MEL-28; 59 µM (inactive) in the test on OVCAR-4; > 100 µM (inactive) in the test on SK-MEL-2; 27.4 µM (inactive) in the test with EKVX; 33.8 µM with HCT-15; 37.2 µM (inactive) in the test with HCC 2998. The GI50 was 45 µM (inactive) in the test with A549; 21.3 µM (inactive) with K562; > 100 µM (inactive) with SK-OV-3; 12.4 µM (inactive) in the test on 786-0; 40.8 µM (inactive) in the test on NCI-H23; 32.2 µM (inactive) with DLD-1.
For the molecule `CC(=O)N(CCc1ccccc1)C(C#N)c1ccc(OCCCCCCCCCCOc2ccc(C(C#N)N(CCc3ccccc3)C(C)=O)cc2)cc1` (configuration not stated), the GI50 in the test with Hs-578T was 17.1 µM (inactive); in the test on SK-MEL-28, > 100 µM (inactive); in the test with OVCAR-4 it was 5.41 µM (inactive); in the test on SK-MEL-2 it was 47.2 µM (inactive); with MDA-MB-435, > 100 µM (inactive); in the test on EKVX it was 36.5 µM (inactive). The GI50 in the test with HCT-15 was 99.1 µM; in the test with HCC 2998, > 100 µM (inactive); with A549 it was > 100 µM (inactive); in the test on PC-3 it was 63.4 µM (inactive); with K562, > 100 µM (inactive); in the test with SK-OV-3, 22.9 µM (inactive). Besides, the GI50 in the test on MDA-MB-231 was 15.2 µM (inactive); in the test on 786-0, 16.2 µM (inactive); with IGROV-1, 31.6 µM (inactive); in the test with HOP-92, 15 µM (inactive); with UACC-257, > 100 µM (inactive); in the test on T47D it was 41 µM (inactive). Besides, the GI50 in the test with NCI-H23 is 44.9 µM (inactive).
With `COc1cccc(N2C(=O)/C(=C\c3ccccc3)SC2c2cc(OC)c(OC)c(OC)c2)c1` (configuration not stated), the GI50 in the test on Hs-578T is 30.4 µM (inactive); in the test on SK-MEL-28, 96.2 µM (inactive); in the test on OVCAR-4, 46.5 µM (inactive); in the test on SK-MEL-2, 62.1 µM (inactive); with MDA-MB-435 it was 22.6 µM (inactive); with EKVX it was 44.2 µM (inactive). For the same molecule, the GI50 was 44.3 µM in the test with HCT-15; 32.3 µM (inactive) in the test with HCC 2998; 64.1 µM (inactive) in the test on A549; 46.5 µM (inactive) in the test on PC-3; 26.9 µM (inactive) in the test on K562; 35.6 µM (inactive) with SK-OV-3. Also, the GI50 in the test with MDA-MB-231 was 98.2 µM (inactive); in the test on 786-0, 40.9 µM (inactive); with IGROV-1, 31.3 µM (inactive); with HOP-92, 27.7 µM (inactive); in the test on UACC-257, > 100 µM (inactive); in the test with T47D, 17.4 µM (inactive). Also, in the test with NCI-H23, the GI50 was 52.6 µM (inactive).
As to `Nc1nc2ncn(CC(O)CO)c2c(=S)[nH]1` (configuration not stated), the GI50 was > 100 µM (inactive) in the test on SK-MEL-28; > 100 µM (inactive) in the test with OVCAR-4; > 100 µM (inactive) in the test with SK-MEL-2; > 100 µM (inactive) in the test on EKVX; above 100 µM in the test with HCT-15; > 100 µM (inactive) with A549. In addition, the GI50 with K562, with SK-OV-3, with 786-0, with IGROV-1, with HOP-92 and with UACC-257 was > 100 µM (inactive) throughout. Moreover, the GI50 in the test on DLD-1 was > 100 µM (inactive).
As to `C1=CC(N(c2ccccc2)C2C=CCCC2)CCC1` (configuration not stated), the GI50 with SK-MEL-28 is > 100 µM (inactive); with EKVX it was > 100 µM (inactive); with HCT-15, above 100 µM; in the test with A549 it was > 100 µM (inactive); with K562 it was > 100 µM (inactive); with SK-OV-3, > 100 µM (inactive). Also, the GI50 in the test with 786-0 is > 100 µM (inactive); in the test on IGROV-1 it was > 100 µM (inactive); with HOP-92 it was 35.8 µM (inactive); in the test on NCI-H23 it was > 100 µM (inactive); in the test on DLD-1, > 100 µM (inactive).
With `Clc1cccc(-c2nnc(-c3nn(-c4ccccc4)c4nc5ccccc5nc34)o2)c1`, the GI50 with SK-MEL-28 was > 100 µM (inactive); in the test with OVCAR-4 it was > 100 µM (inactive); in the test on SK-MEL-2 it was > 100 µM (inactive); with EKVX, > 100 µM (inactive); in the test with HCT-15, above 100 µM; in the test with HCC 2998, > 100 µM (inactive). Besides, the GI50 in the test on A549, in the test on K562, in the test with SK-OV-3, in the test with 786-0, with IGROV-1 and with UACC-257 was > 100 µM (inactive) each time. Besides, the GI50 in the test with NCI-H23 and in the test with DLD-1 was > 100 µM (inactive) each time.
As to `C[N+](C)([O-])CCCNc1c2ccccc2nc2cccc([N+](=O)[O-])c12`, the GI50 was 0.938 µM (active) with Hs-578T; 0.684 µM (active) in the test on SK-MEL-28; 0.288 µM (active) in the test with OVCAR-4; 0.214 µM (active) in the test with SK-MEL-2; 0.226 µM (active) with MDA-MB-435; 0.28 µM (active) in the test with EKVX. The GI50 in the test on HCT-15 was 0.457 µM; in the test with HCC 2998, 0.164 µM (active); with A549, 0.175 µM (active); in the test with PC-3, 0.219 µM (active); in the test on K562, 0.253 µM (active); in the test with SK-OV-3 it was 0.631 µM (active). For the same molecule, the GI50 is 0.33 µM (active) in the test with MDA-MB-231; 0.166 µM (active) in the test with 786-0; 0.259 µM (active) in the test on IGROV-1; 0.31 µM (active) in the test on HOP-92; 0.536 µM (active) in the test with UACC-257; 0.257 µM (active) in the test on T47D. Further, in the test on NCI-H23, the GI50 is 0.156 µM (active).
As for `O=C(/C=C/c1ccc(O)c(O)c1)OCc1ccccc1` [BENZYL CAFFEATE], the GI50 in the test with Hs-578T was 9.71 µM (inactive); with SK-MEL-28, 6.37 µM (inactive); in the test with OVCAR-4, 8.97 µM (inactive); in the test with SK-MEL-2, 13.4 µM (inactive); in the test on MDA-MB-435, 6.27 µM (inactive); in the test on EKVX, 29.7 µM (inactive). In addition, the GI50 with HCT-15 is 5.4 µM; in the test on HCC 2998, 36.6 µM (inactive); in the test on A549, 19.2 µM (inactive); with PC-3 it was 18 µM (inactive); in the test with K562, 9.84 µM (inactive); in the test with SK-OV-3, 18.3 µM (inactive). Moreover, the GI50 with MDA-MB-231 was 21.6 µM (inactive); in the test on 786-0 it was 14.7 µM (inactive); in the test on IGROV-1 it was 3.38 µM (inactive); with HOP-92 it was 16.2 µM (inactive); in the test on UACC-257, 21.2 µM (inactive); with T47D, 12.1 µM (inactive). The GI50 in the test on NCI-H23 is 14.8 µM (inactive).

These data come from ChEMBL document CHEMBL1201862, “PubChem BioAssay data set” (2004).
